US11162123B2, “Glutamine synthetase reaction and method for quantifying ammonia utilizing the same” (ARKRAY, Inc., priority 2017, dated 2021)
Where two headings read alike, the source gives them in different places.

Columns and labels:
[1] = tested on: glutamine synthetase
Method: (§1) Reagent A was mixed with a sample immediately before the reaction, and then reagent B was added to the resulting mixture to perform the reaction. The ammonia concentration was measured based on the increase in the absorbance at 340 nm during the period of 300 seconds after the beginning of the reaction. To the sample, calcium was added at various concentrations (180, 340, 530, or 700 ppm). The liquid volumes of the reagents were as follows: reagent A, 140 μL; reagent B, 35 μL; sample, 10 μL.
Subsequently, in what step calcium affects the ammonia measurement reaction was investigated. […] Since ADP is a substrate of ADP-dependent hexokinase, the effect of calcium in the sample on the reactions of enzymes excluding glutamine synthetase can be investigated. Similarly, each of G6P and NADH was added as a sample to the reaction system to investigate the reaction using G6P or NADH as a substrate.

[2] = tested on: glutamine synthetase; remark: listed apart in the source
Method: After mixing the components, a base material was impregnated therewith. After drying the base material, a test liquid (10,000 N-μg/dL aqueous ammonia solution supplemented with 0, 10, 30, 60, or 80 ppm calcium) was added thereto, followed by allowing the reaction to proceed at room temperature for 300 seconds and then measuring the reflectance (ΔR). By calculating the difference (ΔR) between the reflectance R of the sample to which calcium was not added and the reflectance R of each sample to which calcium was added, the effect of calcium in the ammonia measurement system can be investigated.

[3] = target: Glutamine synthetase (GST) (Homo sapiens, UniProt P15104); settings: known from the art; cited from earlier work
[4] = tested on: enzymes excluding glutamine synthetase; assay: liquid reaction system with ADP, G6P or NADH added as sample (enzymes excluding glutamine synthetase); format: biochemical
Method: as §1
Since ADP is a substrate of ADP-dependent hexokinase, the effect of calcium in the sample on the reactions of enzymes excluding glutamine synthetase can be investigated. Similarly, each of G6P and NADH was added as a sample to the reaction system to investigate the reaction using G6P or NADH as a substrate.

Glutamine synthetase (GST), sequence (P15104 whole entry, species assumed): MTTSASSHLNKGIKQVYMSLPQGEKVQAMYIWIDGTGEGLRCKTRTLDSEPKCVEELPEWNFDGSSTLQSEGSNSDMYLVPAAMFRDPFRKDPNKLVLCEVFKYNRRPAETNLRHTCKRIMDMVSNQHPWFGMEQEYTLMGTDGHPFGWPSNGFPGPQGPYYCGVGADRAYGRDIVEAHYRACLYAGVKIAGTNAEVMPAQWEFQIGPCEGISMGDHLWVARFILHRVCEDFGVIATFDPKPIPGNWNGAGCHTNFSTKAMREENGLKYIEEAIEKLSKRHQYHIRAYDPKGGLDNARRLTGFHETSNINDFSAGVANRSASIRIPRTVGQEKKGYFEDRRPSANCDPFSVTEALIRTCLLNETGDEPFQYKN

O=C(O)CN(CCN(CC(=O)O)CC(=O)O)CC(=O)O [EDTA, ethylenediaminetetraacetic acid, reference compound]
measured value of ammonia versus calcium concentration ([1]; addition of EDTA (2.00 mM in reagent A), calcium 180-700 ppm in sample): does not change dependently on the calcium concentration | change in reflectance (change in ΔR) caused by calcium ([2]; addition of 5, 10 or 20 mM EDTA): improved the change in the reflectance

CS(=N)(=O)CC[C@H](N)C(=O)O (stereo partly drawn) [L-methionine sulfoximine]
inhibition of glutamine synthetase [3]: inhibited

[Ca+2] [calcium]
effect of calcium on measured value, ADP added as sample ([4]; ADP as sample, with and without EDTA): disappearance of the effect of calcium | effect of calcium on measured value, G6P or NADH added as sample ([4]; G6P or NADH as sample): no effect of calcium was found | step of the ammonia measurement reaction affected by calcium ([1]; conclusion from substrate-addition experiments): affects glutamine synthetase in the first step | measured value of ammonia versus calcium concentration ([1]; no addition of EDTA, calcium 180, 340, 530 or 700 ppm in sample, absorbance 340 nm, 300 seconds): decreases dependently on the calcium concentration | measured value (reflectance, ΔR) versus calcium concentration ([2]; no EDTA, test liquid with 0, 10, 30, 60 or 80 ppm calcium, room temperature, 300 seconds): changed dependently on the calcium concentration

CP(=O)(O)CC[C@H](N)C(=O)O [phosphinothricin]
inhibition of glutamine synthetase [3]: inhibited
